The values below come from ChEMBL document CHEMBL1921694, “Structure-based design of isoindoline-1,3-diones and 2,3-dihydrophthalazine-1,4-diones as novel B-Raf inhibitors” (Bioorg Med Chem Lett, 2011).

SMILES strings stand for the structures.

Serine/threonine-protein kinase B-raf, sequence (P15056 whole entry): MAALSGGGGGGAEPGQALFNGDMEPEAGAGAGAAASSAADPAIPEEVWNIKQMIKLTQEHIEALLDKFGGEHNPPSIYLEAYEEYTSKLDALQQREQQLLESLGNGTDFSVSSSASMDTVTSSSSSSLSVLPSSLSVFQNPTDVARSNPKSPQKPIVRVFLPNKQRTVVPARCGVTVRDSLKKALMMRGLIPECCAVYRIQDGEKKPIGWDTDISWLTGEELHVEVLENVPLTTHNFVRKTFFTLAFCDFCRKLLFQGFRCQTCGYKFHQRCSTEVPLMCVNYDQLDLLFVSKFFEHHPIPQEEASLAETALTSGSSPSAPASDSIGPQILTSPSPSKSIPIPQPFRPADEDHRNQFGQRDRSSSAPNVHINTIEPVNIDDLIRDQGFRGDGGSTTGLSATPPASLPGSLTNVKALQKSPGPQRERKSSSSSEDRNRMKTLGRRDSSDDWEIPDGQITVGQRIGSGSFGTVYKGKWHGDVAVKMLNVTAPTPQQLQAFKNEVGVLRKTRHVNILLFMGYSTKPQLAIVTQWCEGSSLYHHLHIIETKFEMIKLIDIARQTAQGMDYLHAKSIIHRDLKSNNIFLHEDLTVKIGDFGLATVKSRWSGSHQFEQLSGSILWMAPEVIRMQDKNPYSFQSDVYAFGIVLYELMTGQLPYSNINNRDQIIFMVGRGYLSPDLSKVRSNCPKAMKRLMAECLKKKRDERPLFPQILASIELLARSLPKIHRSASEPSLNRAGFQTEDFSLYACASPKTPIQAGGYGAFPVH

This assay addresses Serine/threonine-protein kinase B-raf (Homo sapiens, UniProt P15056). Description: Inhibition of human recombinant his6-tagged B-Raf expressed in Sf9 cells assessed as inhibition of MEK1 phosphorylation after 60 mins.
On to `O=C(Nc1cccc(Nc2cc3c(=O)[nH][nH]c(=O)c3cc2Cl)c1)c1cccc(Cl)c1`, for which the IC50 came to 35 nM. Next, `Cn1nc(C(C)(C)C)cc1C(=O)Nc1cccc(Nc2cc3c(cc2Cl)C(=O)NC3=O)c1`: 349 nM.

As to `N#Cc1cccc(C(=O)Nc2cccc(Nc3cc4c(cc3Cl)C(=O)NC4=O)c2)c1`, the IC50 was 297 nM. Next, `Cn1nc(C(C)(C)C)cc1C(=O)Nc1cccc(Nc2cc3c(=O)[nH][nH]c(=O)c3cc2Cl)c1`: 293 nM; `O=C1NC(=O)c2cc(Nc3cccc(O)c3)c(Nc3ccccc3)cc21`: 1680 nM; `O=C(Nc1cccc(Nc2cc3c(cc2Cl)C(=O)NC3=O)c1)c1cccc(OC(F)(F)F)c1`: 6 nM.

As for `O=C1NC(=O)c2cc3c(-c4cccc(O)c4)c[nH]c3cc21`, the IC50 stood at 3470 nM. Next, `O=C(Nc1cccc(Nc2cc3c(cc2Cl)C(=O)NC3=O)c1)c1cccc(C(F)(F)F)c1`: 10 nM. The result for `O=C(Nc1cccc(Nc2cc3c(=O)[nH][nH]c(=O)c3cc2Cl)c1)c1cccc(OC(F)(F)F)c1` reads 18 nM; that for `N#Cc1cccc(C(=O)Nc2cccc(Nc3cc4c(=O)[nH][nH]c(=O)c4cc3Cl)c2)c1`, 296 nM. The result for `O=c1[nH][nH]c(=O)c2cc(Nc3cccc(O)c3)c(Nc3ccccc3)cc12` reads 3770 nM; that for `O=C(Nc1cccc(Nc2cc3c(cc2Cl)C(=O)NC3=O)c1)c1cccc(Br)c1`, 35 nM; that for `O=C(Nc1cccc(Nc2cc3c(cc2Cl)C(=O)NC3=O)c1)c1cccc(I)c1`, 8 nM. With `O=C(Nc1cccc(Nc2cc3c(=O)[nH][nH]c(=O)c3cc2Cl)c1)c1cccc(Br)c1`, the IC50 came out at 19 nM. The result for `O=c1[nH][nH]c(=O)c2cc(Nc3cccc(O)c3)c(Nc3cccc(O)c3)cc12` reads 290 nM.

With `O=C(Nc1cccc(Nc2cc3c(cc2Cl)C(=O)NC3=O)c1)c1cccc(Cl)c1`, the IC50 amounted to 117 nM. The result for `O=C(Nc1cccc(Nc2cc3c(=O)[nH][nH]c(=O)c3cc2Cl)c1)c1cccc(I)c1` reads 8 nM; that for `NC(=O)c1ccc2[nH]cc(-c3cccc(O)c3)c2c1`, more than 10000 nM.

For `O=C1NC(=O)c2cc(Nc3cccc(O)c3)c(Nc3cccc(O)c3)cc21`, the IC50 came out at 338 nM. In the case of `O=C(Nc1cccc(Nc2cc3c(=O)[nH][nH]c(=O)c3cc2Cl)c1)c1cccc(C(F)(F)F)c1`, the IC50 amounted to 17 nM.

The term IC50 denotes the midpoint of a concentration-inhibition curve.
